Measured values as given in patent US11584714B2 (priority 2018, dated 2023).
Structures can show the parent of a compound that is named as a salt. Where two headings read alike, the source gives them in different places.

Key:
Format in all cases: biochemical
[1] = biological target: mMASP-2 (Mus musculus (Mouse), UniProt Q91WP0); test: Enzymatic inhibition of mMASP-2
[2] = biological target: human α-thrombin (Homo sapiens (Human), UniProt P00734); test: Enzymatic assay for thrombin (Boc-VPR-AMC substrate)
[3] = biological target: MASP-2 (CCP1-CCP2-SP) (Homo sapiens (Human), UniProt O00187); test: biochemical; conditions: for MASP-2 vs. thrombin selectivity: selectivity for MASP-2 inhibition versus thrombin
Chain of MASP-2 (CCP1-CCP2-SP) (O00187 445-686): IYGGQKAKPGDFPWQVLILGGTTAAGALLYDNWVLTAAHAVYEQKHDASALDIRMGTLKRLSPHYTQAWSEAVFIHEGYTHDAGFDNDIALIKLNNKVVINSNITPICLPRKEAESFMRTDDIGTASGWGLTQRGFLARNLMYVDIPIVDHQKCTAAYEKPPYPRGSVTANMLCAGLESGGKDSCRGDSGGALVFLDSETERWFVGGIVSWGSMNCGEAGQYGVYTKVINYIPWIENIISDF

Chain of mMASP-2 (Q91WP0 20-685): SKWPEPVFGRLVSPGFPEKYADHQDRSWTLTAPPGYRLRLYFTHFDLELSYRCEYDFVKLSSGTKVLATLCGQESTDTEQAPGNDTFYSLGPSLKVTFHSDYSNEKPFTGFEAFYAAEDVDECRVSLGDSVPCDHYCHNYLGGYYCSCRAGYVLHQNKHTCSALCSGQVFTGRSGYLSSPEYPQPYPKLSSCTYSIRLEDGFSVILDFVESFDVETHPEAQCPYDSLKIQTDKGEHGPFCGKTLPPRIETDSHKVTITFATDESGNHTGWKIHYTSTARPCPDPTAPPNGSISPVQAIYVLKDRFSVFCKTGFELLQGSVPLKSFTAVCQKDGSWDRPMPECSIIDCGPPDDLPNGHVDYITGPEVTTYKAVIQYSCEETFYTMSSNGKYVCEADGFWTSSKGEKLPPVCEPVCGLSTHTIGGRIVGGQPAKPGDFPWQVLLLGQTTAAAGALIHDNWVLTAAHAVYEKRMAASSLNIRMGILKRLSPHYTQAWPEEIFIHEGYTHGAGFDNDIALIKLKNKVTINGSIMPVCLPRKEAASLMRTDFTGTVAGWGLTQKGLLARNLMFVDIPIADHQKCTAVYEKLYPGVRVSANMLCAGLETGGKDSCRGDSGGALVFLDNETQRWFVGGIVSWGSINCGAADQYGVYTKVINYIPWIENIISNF

| Structure (SMILES) | Ki ([1]; read-out: mMASP-2 Ki) | Ki ([2]; Thrombin Ki (μM)) | Ki [3] | MASP-2 vs. thrombin selectivity [3] | Ki ([2]; read-out: Thrombin Ki) | Ki [1] | Ki ([3]; MASP-2 Ki (μM)) | Ki ([3]; read-out: MASP-2 Ki) |
| --- | --- | --- | --- | --- | --- | --- | --- | --- |
| C[C@H](NC(=O)c1nc(-c2ccccc2)cs1)C(=O)NCc1ccc(C(=N)N)cc1 [compound 1286, (S)—N-(1-((4-Carbamimidoylbenzyl)amino)-1-oxopropan-2-yl)-4-phenylthiazole-2-carboxamide] | < 0.5 µM | 0.5 to 2.5 µM | 2.5 to 10 µM | −− (<1.0-fold) |  |  |  |  |
| C[C@H](NC(=O)[C@H](N)CCc1ccccc1)C(=O)NCc1cc(Cl)ccc1CO [compound 1287, (R)-2-amino-N—((S)-1-((5-Chloro-2-(hydroxymethyl)benzyl)amino)-1-oxopropan-2-yl)-4-phenylbutanamide] | > 25 µM |  | 10 to 25 µM |  | > 25 µM |  |  |  |
| C[C@H](NC(=O)[C@H]1C[C@H](c2ccccc2)CN1)C(=O)NCc1ccc(C(=N)NC(=O)OCC(Cl)(Cl)Cl)cc1 [compound 1288, 2,2,2-Trichloroethyl (imino(4-(((S)-2-((2R,4R)-4-phenylpyrrolidine-2-carboxamido)propanamido)methyl)phenyl)methyl)carbamate] |  |  |  |  | > 25 µM | 2.5 to 10 µM | 2.5 to 10 µM |  |
| CC[C@H](NC(=O)[C@H](N)CCc1ccccc1)C(=O)NCc1ccc(C(=N)N)cc1 [compound 1289, (R)-2-Amino-N—((S)-1-((4-carbamimidoylbenzyl)amino)-1-oxobutan-2-yl)-4-phenylbutanamide] | < 0.5 µM |  |  | −− (<1.0-fold) | < 0.5 µM |  |  | < 0.5 µM |
| CC[C@H](NC(=O)[C@H]1C[C@H](c2ccccc2)CN1)C(=O)NCc1ccc(C(=N)N)cc1 [compound 1290, (2R,4R)—N—((S)-1-((4-carbamimidoylbenzyl)amino)-1-oxobutan-2-yl)-4-phenylpyrrolidine-2-carboxamide] | < 0.5 µM | 0.5 to 2.5 µM |  | ** (≥5.0 to <25-fold) |  |  |  | < 0.5 µM |
| CC(C)COC(=O)NC(=N)c1ccc(CNC(=O)[C@H](C)NC(=O)[C@H]2C[C@H](c3ccccc3)CN2)cc1 [compound 1293, Isobutyl (imino(4-(((S)-2-((2R,4R)-4-phenylpyrrolidine-2-carboxamido)propanamido)methyl)phenyl)methyl)carbamate] | 2.5 to 10 µM |  | 2.5 to 10 µM | * (≥1.0 to <5.0-fold) | > 25 µM |  |  |  |
| C[C@H](NC(=O)c1cc(-c2ccccc2)n[nH]1)C(=O)NCc1ccc(C(=N)N)cc1 [compound 1295, (S)—N-(1-((4-Carbamimidoylbenzyl)amino)-1-oxopropan-2-yl)-3-phenyl-1H-pyrazole-5-carboxamide] | < 0.5 µM | 2.5 to 10 µM |  | *** (≥25 to <100-fold) |  |  |  | < 0.5 µM |
| C[C@H](NC(=O)[C@H](N)CCc1ccccc1)C(=O)NCc1ccnc(N)c1 [compound 1296, (R)-2-Amino-N—((S)-1-(((2-aminopyridin-4-yl)methyl)amino)-1-oxopropan-2-yl)-4-phenylbutanamide Dihydrochloride] | > 25 µM |  | 2.5 to 10 µM | ** (≥5.0 to <25-fold) | > 25 µM |  |  |  |
| Cc1cc(Cl)cc(CNC(=O)[C@H](C)NC(=O)[C@H]2C[C@H](c3ccccc3)CN2)c1O [compound 1298, (2R,4R)—N—((S)-1-((5-chloro-2-hydroxy-3-methylbenzyl)amino)-1-oxopropan-2-yl)-4-phenylpyrrolidine-2-carboxamide Hydrochloride] | 2.5 to 10 µM |  |  |  | > 25 µM |  |  | < 0.5 µM |
| Cc1cc(Cl)cc(CNC(=O)[C@H](C)NC(=O)[C@H](N)CCc2ccccc2)c1O [compound 1299, (R)-2-Amino-N—((S)-1-((5-chloro-2-hydroxy-3-methylbenzyl)amino)-1-oxopropan-2-yl)-4-phenylbutanamide Hydrochloride] | 10 to 25 µM |  |  | **** (≥100-fold) | > 25 µM |  |  | < 0.5 µM |
| C[C@H](NC(=O)[C@H]1C[C@H](c2ccccc2)CN1)C(=O)NCc1ccc(C(=N)N)c(F)c1 [compound 1300, (2R,4R)—N—((S)-1-((4-Carbamimidoyl-3-fluorobenzyl)amino)-1-oxopropan-2-yl)-4-phenylpyrrolidine-2-carboxamide Di-trifluoroacetate salt] | < 0.5 µM | 2.5 to 10 µM |  | *** (≥25 to <100-fold) |  |  |  | < 0.5 µM |
| C[C@H](NC(=O)[C@H]1C[C@H](c2ccccc2)CN1)C(=O)NCc1cc(Cl)c[nH]c1=O [compound 1301, (2R,4R)—N—((S)-1-(((5-Chloro-2-oxo-1,2-dihydropyridin-3-yl)methyl)amino)-1-oxopropan-2-yl)-4-phenylpyrrolidine-2-carboxamide Hydrochloride] | > 25 µM |  | 2.5 to 10 µM |  | > 25 µM |  |  |  |
